Source: patent US20110105436A1, “HETEROARYL COMPOUNDS, COMPOSITIONS, AND METHODS OF USE IN CANCER TREATMENT” (AUCKLAND UNISERVICES LIMITED, priority 2008, published 2011)

Columns and labels:
RCC4 and RCC4/VHL cells = assay: DNA damage: comet assay and p53 immunoblot; assay type: cell-based
Procedure: (§1) B. XTT assay in RCC4 and RCC4/VHL in presence of STF-62247 (0-40 μM). Each point of the cell survival is calculated by the average of three different experiments in duplicate as the percent of treated on untreated plate. The error bars are represented as the standard error of the mean (SEM) C. qRT-PCR for Glutl, VEGF, PDF and PGK in RCC4 cells with or without HIF-1a, HIF-2a shRNA and in RCC4/VHL. D. Hoescht staining in RCC4 and RCC4/VHL cells with 1.25 μM of STF-62247 for 2 days. Camptothecin was used as positive control E. FACS analysis for apoptosis after an annexin V-FITC staining in presence or absence of propidium iodine (PI) in cells after a treatment in same conditions than in C. F. Immunoblot for active caspase-3 in RCC4 and RCC4/VHL following treatment with 1.25 μM of STF-62247 for 24 hours. Staurosporine was used as positive control (0.2 μM for 24 hours). G,H. Immunostaining of caspase-3 and Ki67 respectively in SN12C and SN12C+shVHL tumor samples untreated or treated with 30 μM of STF-62247.1. Immunoblot for p53 and SerlS phospho-p53 in RCC4 and RCC4/VHL cells after a treatment with 1.25 μM of STF-62247 or doxorubicin for 24 hours.

RCC4/VHL cells = assay: XTT assay, RCC4/VHL versus RCC4 cells (selectivity ratio); assay type: cell-based
Procedure, shortened: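 RCC4 cells with or without VHL (5000/well) exposed to serially diluted compounds for four days. Viability read as XTT metabolism (0.3 mg/ml XTT plus PMS, 1-2 h, 37 °C) at 450 nm. Ratio is IC50 in RCC4/VHL over IC50 in RCC4.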

yeast deletion strains = assay: Killing curves of yeast deletion strains; assay type: cell-based, S. cerevisiae
Excerpt: Screen in yeast and killing curves. Genotypes of the parental yeast strain BY4743, construction of the homozygous diploid deletion strains, and construction of the homozygous diploid deletion pool have been described previously (Thomas, G. V., et al., Nat. Med. 2006, 12, 122). A mutant pool of 4728 nonessential homozygous diploid deletion strains was used. The parental diploid strain BY4743 was used as control in survival and complementation assays. […]
A. Killing curves for 8 deletion yeast strains. Wild-type, ALG5, APS1, CLA4, DRS2, OSH3, VPS20, VPS25, YPT31 were incubated with STF-62247 (0-100 μM) for 1 hour and colony formation was evaluated after two days. Each point of the survival is calculated by the average of two different experiments in triplicate and as the percent of treated on untreated plate. B. Quantitative real time PCR for CHMP6, PAK2, RAB11a, OSBP3 and ALG5 in RCC4 and RCC4/VHL. Histogram is calculated by the average of three different experiments in triplicate as the percent of RCC4/VHL on RCC4 cells. […] Colony formation was evaluated as described before. *p<0.05 represents the difference between VHL cells and VHL with siRNA in presence of 5 μM of STF-62247.

[1] = tested on: SN12C and SN12C+shVHL tumor samples; assay: Ki67 immunostaining of tumor samples; assay type: in vivo, mice; conditions: RCC deficient in VHL or with wild-type VHL, FIG. 7H
Procedure: as §1

## Cc1cccc(Nc2nc(-c3ccncc3)cs2)c1 [Compound 5, N-(3-Methylphenyl)-4-(4-pyridinyl)-1,3-thiazol-2-amine]
RCC4 and RCC4/VHL cells; 1.25 μM, 24 hours, FIG. 7I
  phosphorylation of p53 on serine 15 and total p53 levels: unaffected
RCC4 and RCC4/VHL cells; data not shown
  DNA damage by comet assay: did not induce DNA damage
RCC4/VHL cells; Table 1, selectivity ratio, IC50 in RCC4/VHL cells/IC50 in RCC4 cells
  Ratio: 19
RCC4/VHL cells; structure-activity text on Tables 1 and 2
  IC50 ratio (wild-type VHL/VHL-deficient cells): high IC50 ratio
Yeast deletion strains; ATG8 deletion strain, data not shown
  sensitivity of yeast deletion strain: did not exhibit sensitivity to STF-62247
Yeast deletion strains; CLA4, VPS20, ALG5, OSH3 and YPT31 deletion strains, 0-100 μM, 1 h
  toxicity in yeast deletion strains: significant toxicity in response to STF-62247
[1]
  proliferation by Ki67 staining: no difference in proliferation
